Results: PubChem BioAssay (NCI)
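48-hour exposure; five concentrations; linearly interpolated endpoints. Definition used: TGI = concentration required for complete inhibition of growth.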

Legend:
Assay in all cases: NCI-60 cell line screen, 48 h
[1] = tested on: K-562 leukemia
[2] = tested on: SW-620 colon
[3] = tested on: LXFL 529 NSCLC
[4] = tested on: SF-295 CNS
[5] = tested on: DMS 273 small cell lung
[6] = tested on: SK-MEL-5 melanoma
[7] = tested on: SK-MEL-28 melanoma
[8] = tested on: IGROV1 ovarian
[9] = tested on: MALME-3M melanoma
[10] = tested on: SNB-78 CNS
[11] = tested on: RPMI-8226 leukemia
[12] = tested on: NCI-H522 lung
[13] = tested on: HL-60(TB) leukemia
[14] = tested on: UACC-257 melanoma
[15] = tested on: UO-31 renal
[16] = tested on: TK-10 renal
[17] = tested on: KM12 colon
[18] = tested on: HOP-18 NSCLC
[19] = tested on: KM20L2 colon
[20] = tested on: COLO 205 colon
[21] = tested on: OVCAR-4 ovarian
[22] = tested on: HT29 colon
[23] = tested on: SNB-19 CNS
[24] = tested on: 786-0 renal
[25] = tested on: HCT-116 colon
[26] = tested on: SF-268 CNS
[27] = tested on: HOP-62 NSCLC
[28] = tested on: NCI-H460 lung
[29] = tested on: OVCAR-5 ovarian
[30] = tested on: NCI-H23 lung
[31] = tested on: ACHN renal
[32] = tested on: SR leukemia
[33] = tested on: DMS 114 small cell lung
[34] = tested on: OVCAR-8 ovarian
[35] = tested on: SN12C renal
[36] = tested on: SNB-75 CNS
[37] = tested on: SF-539 CNS
[38] = tested on: OVCAR-3 ovarian
[39] = tested on: U251 CNS
[40] = tested on: A549 NSCLC
[41] = tested on: RXF 393 renal
[42] = tested on: UACC-62 melanoma
[43] = tested on: DLD-1 colon
[44] = tested on: EKVX NSCLC
[45] = tested on: A498 renal
[46] = tested on: CCRF-CEM leukemia
[47] = tested on: MOLT-4 leukemia
[48] = tested on: M19-MEL melanoma
[49] = tested on: SK-OV-3 ovarian
[50] = tested on: HCT-15 colon
[51] = tested on: LOX IMVI melanoma
[52] = tested on: M14 melanoma
[53] = tested on: CAKI-1 renal
[54] = tested on: HCC-2998 colon
[55] = tested on: NCI-H226 lung
[56] = tested on: RXF-631 renal
[57] = tested on: SK-MEL-2 melanoma
[58] = tested on: HOP-92 NSCLC
[59] = tested on: XF 498 CNS

Measured: TGI

CN(C)CC/C(=N\Nc1ccc(Cl)c(Cl)c1)c1ccccc1
5.26 µM: [35]
3.99 µM: [4]
9.13 µM: [45]
13.8 µM: [23]
5.65 µM: [10]
8.47 µM: [41]
3.86 µM: [33]
3.96 µM: [34]
3.19 µM: [25]
4.05 µM: [22]
3.17 µM: [19]
3.28 µM: [39]
3.8 µM: [40]
3.05 µM: [31]
5.01 µM: [21]
3.51 µM: [48]
6.18 µM: [46]
4.18 µM: [50]
2.9 µM: [3]
14.1 µM: [49]
3.15 µM: [20]
3.06 µM: [51]
3.23 µM: [5]
9.61 µM: [14]
3.93 µM: [44]
3.37 µM: [24]
3.43 µM: [6]
13.3 µM: [9]
5.58 µM: [32]
4.28 µM: [12]
3.25 µM: [15]
6.73 µM: [11]
5.68 µM: [8]
3.67 µM: [30]
4.68 µM: [1]
3.48 µM: [26]
3.88 µM: [42]
3.47 µM: [37]
10 µM: [43]
6.09 µM: [27]
6.34 µM: [29]
5.9 µM: [47]
3.92 µM: [17]
3.65 µM: [28]
7.08 µM: [36]
5.76 µM: [18]
6.43 µM: [7]
3.68 µM: [2] | [16]
5.8 µM: [13]
6.45 µM: [38]

CC(=O)C1C(=O)C(=O)N(c2ccccc2N2C(=O)C(=O)C(C(C)=O)C2=O)C1=O (stereo not drawn)
not listed: [5] | [59]
> 100 µM: all other assays above

O=P(O)(O)C1CCCC(P(=O)(O)O)N1 (stereo not drawn)
not listed: [1] | [2] | [3] | [6] | [9] | [11] | [18] | [20] | [21] | [24] | [35] | [36] | [37] | [38] | [42] | [43] | [50] | [51] | [53] | [54] | [57] | [59]
> 100 µM: all other assays above

CC(C)(C)OC(=O)NC1CCC[C@H]1O (stereo partly drawn)
not listed: [8] | [11] | [13] | [18] | [20] | [50]
> 100 µM: all other assays above
